Experimental data published in patent publication US20250188078A1, “SMALL MOLECULE INHIBITORS OF THE CRL4 UBIQUITIN LIGASE” (Cornell University, priority 2022, published 2025).

Tests used:
[1] = biological target: CUL4A-DDB1-BPB interaction (Homo sapiens (Human), UniProt Q16531); experiment: AlphaLISA in vitro binding assay, CUL4A and DDB1-BPB binding; conditions: inhibition of CUL4A and DDB1-BPB binding
Excerpt: AlphaLISA IC50 (see Table 1, column 4) means the half maximal inhibitory concentration of compound that inhibits CUL4A and DDB1-BPB binding. Our lab established and optimized 384 well-based AlphaLISA in vitro binding assay for testing small molecule inhibitory activity. Small molecule libraries were screened for compounds that disrupt CUL4A-DDB1-BPB interaction using AlphaScreen detection beads (PerkinElmer, #AL112C and #6765300) following the manufacturer's protocol (https://www.perkinelmer.com/PDFs/downloads/GDE-Alphatech.pdf, hereby incorporated by reference in its entirety for all purposes). The 384-well assay plates (Greiner Bio-one, #781075) were read in Synergy Neo2 Hybrid Multi-Mode Reader (BioTek). The IC50 was calculated by Prism 8 XY analysis nonlinear regression (curve fit-Log(inhibitor) vs response).

[2] = tested on: CUL4A^high MDA-MB-468 breast cancer cells; experiment: Cell killing in CUL4-high MDA-MB-468 cells (CellTiter Glo); assay type: cell-based; conditions: Homo sapiens, 192 h; MDA-MB-468 cells, 8 days treatment; read-out: EC50 CUL4-High Cells (cell killing)
Method: EC50 refers to concentration of compound that induces 50% killing of CUL4A^high MDA-MB-468 cells (see Table 1, column 6). CUL4A^high MDA-MB-468 breast cancer cells were seeded in 96 well plates. After 24 hours, cells were treated with DMSO or compounds. Change fresh medium and compounds. After 8 days treatment, cell viability was examined by using CellTiter Glo kit (Promega #7570) following the manufacturer's guidelines (https://www.promega.com/-/media/files/resources/protocols/technicalbulletins/0/celltiter-glo-luminescent-cell-viability-assay protocol.pdf?rev=0d95c232094b41daa06d0c110d1d916f&sc_lang=en, hereby incorporated by reference in its entirety for all purposes). EC50 concentration was calculated by Prism 8 XY analysis nonlinear regression (curve fit-Log(inhibitor) vs response). Lower EC50 indicates high cell killing potential in CUL4^high MDA-MB-468 cells.
CUL4A^high MDA-MB-468, CUL4^low (T47D), and MCF7 breast cancer cells were seeded in 96 well plates separately. Cells were treated with DMSO, or from 0 to 20 μM compound respectively. Replace with fresh medium and compounds every 48 hours. After 8 days treatment, cell viability was examined by CellTiter Glo kit (Promega #7570). First, transfer the appropriate volume (10 ml for Cat. #G7570) of CellTiter-Glo® Buffer into the amber bottle containing CellTiter-Glo® Substrate to reconstitute the lyophilized enzyme/substrate mixture. This forms the CellTiter-Glo® Reagent. Second, add CellTiter-Glo® Reagent in an equal volume (100 μl per well for 96-well plates) to all wells. Mix contents for 2 minutes on an orbital shaker to induce cell lysis. Incubate at room temperature for 15 minutes to stabilize luminescent signal. Then record luminescence. EC50 concentration was calculated by Prism 8 XY analysis nonlinear regression (curve fit-Log(inhibitor) vs response).

[3] = tested on: UV-induced CUL4-dependent DDB2 degradation in MEF-F-DDB2 cells; experiment: Cell-based assay for inhibition of UV-induced CUL4-dependent DDB2 degradation; parameters: key: (+) means that the normalized DDB2/α-tubulin ratio is higher in the compound treated sample than DMSO treated sample; (−) means that no change happens between compound treated sample with control sample; conditions: DDB2/α-tubulin by Western blot
Method: Cell-based assay for inhibition of UV-induced CUL4-dependent DDB2 degradation by small molecule CUL4 inhibitors (see Table 1, column 5). Briefly, MEF-F-DDB2 cells were seeded in 6-well plates. DMSO or indicated concentrations of compounds were added to MEF-F-DDB2 cells growing in serum-free medium. MEF-F-DDB2 cells were washed once with PBS and subsequently irradiated with a Philips TUV lamp (predominantly 254 nm) at a dose rate of 0.2 W/m^2. DMSO or compounds were added to MEF-F-DDB2 cells, and then cells were harvested. The cells were lysed, and equal amounts of proteins were resolved on SDS-PAGE gel and Flag-DDB2 levels were detected using anti-DDB2 (D4C4) rabbit antibody (Cell signaling, #5416S). α-tubulin (Proteintech, #66031-1-Ig) was used as an internal loading control. (+) means that the normalized DDB2/α-tubulin ratio is higher in the compound treated sample than DMSO treated sample. (−) means that no change happens between compound treated sample with control sample.

Sequence of CUL4A-DDB1-BPB interaction (Q16531 403-706): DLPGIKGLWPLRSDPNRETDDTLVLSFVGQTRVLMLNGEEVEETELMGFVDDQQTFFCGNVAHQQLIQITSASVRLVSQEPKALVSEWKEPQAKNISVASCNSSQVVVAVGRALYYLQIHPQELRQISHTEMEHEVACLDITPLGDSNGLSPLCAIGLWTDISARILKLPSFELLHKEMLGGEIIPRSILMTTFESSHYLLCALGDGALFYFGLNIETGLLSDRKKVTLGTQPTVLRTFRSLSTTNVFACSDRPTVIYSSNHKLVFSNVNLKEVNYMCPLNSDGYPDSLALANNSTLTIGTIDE

Structure (SMILES)	IC50 [1] [µM]	other results
CN(c1ccc(-c2nc(C(=O)O)cc3c2[nH]c2cc(F)cc(F)c23)cc1)S(=O)(=O)c1ccccc1 [PA1-5, 5,7-difluoro-1-(4-(N-methylphenylsulfonamido)phenyl)-9H-pyrido[3,4-b]indole-3-carboxylic acid]	0.22	EC50 [2]: 10.7 µM
CN(c1ccc(-c2nc(C(=O)O)cc3c2[nH]c2cc(Cl)ccc23)cc1)S(=O)(=O)c1ccccc1 [PA1-6, 1-[4-[benzenesulfonyl(methyl)amino]phenyl]-7-chloro-9H-pyrido[3,4-b]indole-3-carboxylic acid]	1.13	EC50 [2]: 7.89 µM
O=C(O)c1cc2c([nH]c3cc(F)ccc32)c(-c2ccc(Oc3ccccc3)cc2)n1 [PA1-11A, 7-fluoro-1-(4-phenoxyphenyl)-9H-pyrido[3,4-b]indole-3-carboxylic acid]		Degradation Inhibition (inhibition of UV-induced DDB2 degradation) [3]: −; EC50 [2]: 15.7 µM
O=C(O)c1cc2c([nH]c3cc(F)ccc32)c(-c2ccc(OCCc3ccccc3)cc2)n1 [PA1-11B, 7-fluoro-1-(4-phenethoxyphenyl)-9H-pyrido[3,4-b]indole-3-carboxylic acid]		Degradation Inhibition (inhibition of UV-induced DDB2 degradation) [3]: −; EC50 [2]: 15.2 µM
O=C(O)c1cc2c([nH]c3cc(F)ccc32)c(-c2ccc(OCCCc3ccccc3)cc2)n1 [PA1-11C, 7-fluoro-1-(4-(3-phenylpropoxy)phenyl)-9H-pyrido[3,4-b]indole-3-carboxylic acid]		Degradation Inhibition (inhibition of UV-induced DDB2 degradation) [3]: −; EC50 [2]: 7.31 µM
O=C(O)c1cc2c([nH]c3cc(F)ccc32)c(-c2ccc(OCC3CCCCC3)cc2)n1 [PA1-11D, 1-(4-(cyclohexylmethoxy)phenyl)-7-fluoro-9H-pyrido[3,4-b]indole-3-carboxylic acid]		Degradation Inhibition (inhibition of UV-induced DDB2 degradation) [3]: −; EC50 [2]: 9.51 µM
O=C(O)c1cc2c([nH]c3cc(F)ccc32)c(-c2ccc(OCc3ccoc3)cc2)n1 [PA1-11J, 7-fluoro-1-(4-(furan-3-ylmethoxy)phenyl)-9H-pyrido[3,4-b]indole-3-carboxylic acid]		Degradation Inhibition (inhibition of UV-induced DDB2 degradation) [3]: −
O=C(O)c1cc2c([nH]c3cc(F)ccc32)c(-c2ccc(OCc3ccncn3)cc2)n1 [PA1-11L, 7-fluoro-1-(4-(pyrimidin-4-ylmethoxy)phenyl)-9H-pyrido[3,4-b]indole-3-carboxylic acid]		Degradation Inhibition (inhibition of UV-induced DDB2 degradation) [3]: −
O=C(O)c1cc2c([nH]c3cc(F)ccc32)c(-c2ccc(OCn3cncn3)cc2)n1 [PA1-11M, 1-(4-((1H-1,2,4-triazol-1-yl)methoxy)phenyl)-7-fluoro-9H-pyrido[3,4-b]indole-3-carboxylic acid]		Degradation Inhibition (inhibition of UV-induced DDB2 degradation) [3]: −
Cc1cc(F)cc2[nH]c3c(-c4ccc(N(C)S(=O)(=O)c5ccccc5)cc4)nc(C(=O)O)cc3c12 [PA1-14, 7-fluoro-5-methyl-1-(4-(N-methylphenylsulfonamido)phenyl)-9H-pyrido[3,4-b]indole-3-carboxylic acid]	0.139	EC50 [2]: 7.36 µM
O=C(O)c1cc2c([nH]c3ccccc32)c(-c2cccc(Cl)c2)n1 [PA6]	3.97 ± 0.79	
Cn1c2ccccc2c2cc(C(=O)O)nc(-c3ccc([N+](=O)[O-])cc3)c21 [PA14, 9-methyl-1-(4-nitrophenyl)pyrido[3,4-b]indole-3-carboxylic acid]	32.2 ± 7.89	
O=C(O)c1cc2c([nH]c3ccccc32)c(-c2ccc(CO)cc2)n1 [PA21]	3.4 ± 0.88	
O=C(O)c1cc2c([nH]c3ccccc32)c(-c2cccc(O)c2)n1 [PA22]	14.7 ± 3.25	
N#Cc1cccc(-c2nc(C(=O)O)cc3c2[nH]c2ccccc23)c1 [PA23]	2.38 ± 0.9	
COC(=O)c1cccc(-c2nc(C(=O)O)cc3c2[nH]c2ccccc23)c1 [PA24, 1-(3-methoxycarbonylphenyl)-9HPage pyrido[3,4-b]indole-3-carboxylic acid]	12	Degradation Inhibition (inhibition of UV-induced DDB2 degradation) [3]: +
O=C(O)c1cc2c([nH]c3ccccc32)c(-c2cccnc2)n1 [PA25]	2.52 ± 0.54	Degradation Inhibition (inhibition of UV-induced DDB2 degradation) [3]: +
CN1C=C(c2nc(C(=O)O)cc3c2[nH]c2ccccc23)C=NC1 [PA26]	4.81 ± 0.96	
O=C(O)c1cc2c([nH]c3ccccc32)c(-c2ncc[nH]2)n1 [PA27]	23.1 ± 4.02	
O=C(O)c1cc2c([nH]c3ccccc32)c(-c2ccc3[nH]ccc3c2)n1 [PA28, 1-(1H-indol-5-yl)-9H-pyrido[3,4-b]indole-3-carboxylic acid]	34.8 ± 8.75	
O=[N+]([O-])c1ccc(-c2nc(Br)cc3c2[nH]c2ccc(Br)cc23)cc1 [PA30, 3,6-dibromo-1-(4-nitrophenyl)-9H-pyrido[3,4-b]indole]		AlphaLisa IC50 [1]: Neg
CS(=O)(=O)Nc1cc2c([nH]c3ccccc32)c(-c2ccc([N+](=O)[O-])cc2)n1 [PA38, N-[1-(4-nitrophenyl)-9H-pyrido[3,4-b]indol-3-yl]methanesulfonamide]		AlphaLisa IC50 [1]: Neg
NS(=O)(=O)c1cc2c([nH]c3ccc(Cl)cc32)c(-c2ccc([N+](=O)[O-])cc2)n1 [PA41, 6-chloro-1-(4-nitrophenyl)-9H-pyrido[3,4-b]indole-3-sulfonamide]		AlphaLisa IC50 [1]: Neg
COCCOCC#Cc1ccc(-c2nc(C(=O)O)cc3c2[nH]c2ccccc23)cc1 [PA63]	5.05 ± 0.2	

Further lines, with some results ahead:

IC50 [1] [µM]	Structure (SMILES)	other results
3.79 ± 1.02	Cc1c(/C(=N\CC(=O)O)c2ccc3[nH]ncc3c2)[nH]c2ccccc12 [PA29]	
3.54 ± 0.68	O=C(O)c1cc2c([nH]c3ccccc32)c(-c2ccc(F)c(F)c2)n1 [PA32]	
7.1 ± 0.61	O=C(O)c1cc2c([nH]c3ccccc32)c(-c2cccc([N+](=O)[O-])c2)n1 [PA36]	
0.94 ± 0.24	CCS(=O)(=O)c1ccc(-c2nc(C(=O)O)cc3c2[nH]c2ccccc23)cc1 [PA45, 1-(4-ethylsulfonylphenyl)-9Hpyrido[3,4-b]indole-3-carboxylic acid]	
0.96 ± 0.096	NS(=O)(=O)c1ccc(-c2nc(C(=O)O)cc3c2[nH]c2ccccc23)cc1 [PA49, 1-(4-sulfamoylphenyl)-9H-pyrido[3,4-b]indole-3-carboxylic acid]	
0.81 ± 0.21	CN(C)S(=O)(=O)c1ccc(-c2nc(C(=O)O)cc3c2[nH]c2ccccc23)cc1 [PA50, 1-[4-(dimethylsulfamoyl)phenyl]-9H-pyrido[3,4-b]indole-3-carboxylic acid]	
5.5 ± 1.89	O=C(O)c1cc2c([nH]c3ccccc32)c(-c2ccc(-c3ccc(F)cc3)cc2)n1 [PA58]	
25 ± 12.5	Cc1ccc(-c2ccc(-c3nc(C(=O)O)cc4c3[nH]c3ccccc34)cc2)cc1 [PA59]	
17.5 ± 6.39	COc1ccc(-c2ccc(-c3nc(C(=O)O)cc4c3[nH]c3ccccc34)cc2)cc1 [PA60]	Degradation Inhibition (inhibition of UV-induced DDB2 degradation) [3]: −
3.86 ± 0.59	CS(=O)(=O)c1ccc(-c2ccc(-c3nc(C(=O)O)cc4c3[nH]c3ccccc34)cc2)cc1 [PA61]	
36.5 ± 9.9	O=C(O)c1cc2c([nH]c3ccccc32)c(-c2ccc(C#Cc3ccccc3)cc2)n1 [PA62]	
9.04 ± 0.89	CS(=O)(=O)c1ccc(-c2nc(C(=O)O)nc3c2[nH]c2ccccc23)cc1 [PA70, 4-(4-methylsulfonylphenyl)-5H-pyrimido[5,4-b]indole-2-carboxylic acid]	
1.52 ± 0.19	O=C(O)c1cc2c([nH]c3ccccc32)c(-c2ccc(NS(=O)(=O)c3ccccc3)cc2)n1 [PA77, 1-[4-(benzenesulfonamido)phenyl]-9H-pyrido[3,4-b]indole-3-carboxylic acid]	
